In a compilation of properties of binary mixtures (doi:10.3390/app10238342):

Experiment: xn = mol fraction of the nth substance listed
Conditions: 96.7 kPa

CS(C)=O + CC(=O)[O-].CCCCCCn1cc[n+](C)c1
x2 = 0
Conditions	viscosity [mPa·s]
303.15 K	1.81
308.15 K	1.66
313.15 K	1.52
318.15 K	1.4
323.15 K	1.3
328.15 K	1.2
338.15 K	1.04

CC(=O)[O-].CCCCCCn1cc[n+](C)c1 + CS(C)=O
viscosity [mPa·s]
Conditions	x1 = 0.057	x1 = 0.187	x1 = 0.257	x1 = 0.341	x1 = 0.446	x1 = 0.58	x1 = 0.757	x1 = 0.868	x1 = 1
303.15 K	2.7	4.6	9.2	18.7	41	74	250	420	800
308.15 K	2.46	–	–	15.8	32	60	182	290	530
313.15 K	–	3.7	6.9	13	27	–	133	212	370
318.15 K	2	3.2	5.9	10.8	–	41	–	156	260
323.15 K	1.86	2.9	5.2	9.3	17.9	35	78	115	190
328.15 K	1.72	2.6	4.7	8.1	14.7	29	60	88	145
333.15 K	1.58	2.31	4.2	–	–	25	47	68	110
338.15 K	1.47	–	3.6	6.4	10.9	21.3	–	55	88
